Earlier results in article PMC9475448, “What a difference a methylene makes: replacing Glu with Asp or Aad in the Lys-urea-Glu pharmacophore of PSMA-targeting radioligands to reduce kidney and salivary gland uptake” (Theranostics, 2022).

Legend:
PSMA = target: T1, PSMA (Homo sapiens, UniProt Q04609); design: method as in PMID 30097503; conditions: read-out: Ki (PSMA inhibitor); cited from earlier work
T1 construct: LNCaP cells (400,000/well) were plated onto a 24-well poly-D-lysine coated plate for 48 h; endogenous in cells; host or cells: LNCaP prostate cancer cells
T1 sequence (Q04609 whole entry): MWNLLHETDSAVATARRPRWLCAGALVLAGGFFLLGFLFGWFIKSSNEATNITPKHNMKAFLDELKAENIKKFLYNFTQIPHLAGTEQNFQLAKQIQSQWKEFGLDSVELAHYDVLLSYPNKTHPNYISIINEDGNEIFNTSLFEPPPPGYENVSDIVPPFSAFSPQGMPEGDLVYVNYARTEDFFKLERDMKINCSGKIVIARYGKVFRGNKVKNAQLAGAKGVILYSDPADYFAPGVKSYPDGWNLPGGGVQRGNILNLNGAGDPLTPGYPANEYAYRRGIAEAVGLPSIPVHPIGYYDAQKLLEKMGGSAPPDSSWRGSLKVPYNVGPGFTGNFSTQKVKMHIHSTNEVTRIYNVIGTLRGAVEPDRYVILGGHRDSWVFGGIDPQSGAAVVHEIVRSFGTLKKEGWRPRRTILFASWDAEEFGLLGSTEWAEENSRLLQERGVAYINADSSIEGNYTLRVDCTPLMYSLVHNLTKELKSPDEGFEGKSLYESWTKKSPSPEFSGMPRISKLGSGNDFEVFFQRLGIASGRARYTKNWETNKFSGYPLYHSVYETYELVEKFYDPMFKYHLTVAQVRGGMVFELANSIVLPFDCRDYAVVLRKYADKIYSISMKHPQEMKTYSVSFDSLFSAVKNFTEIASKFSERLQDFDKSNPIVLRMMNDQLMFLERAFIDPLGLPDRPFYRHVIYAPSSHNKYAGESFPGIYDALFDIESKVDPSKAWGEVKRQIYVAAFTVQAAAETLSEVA

mouse model = conditions: up to 657 mg/kg; cited from earlier work

N[C@@H](CCC(=O)O)C(=O)[O-].[Na+] [monosodium glutamate]
Ki (PSMA): 900 nM
Effect of pretreatment on [68Ga]Ga-PSMA-11 uptake (mouse model): reduced uptake of [^68Ga]Ga-PSMA-11 in salivary glands and kidneys but had no effect on tumor uptake
